The test has as its target AMPA receptors. In words: Displacement of 3H-AMPA binding, rat forebrain membranes. As to conditions: read-out: IC₅₀ (displacement of ³H-AMPA binding). The procedure:
The ability of test compounds to displace ³H-AMPA binding to rat forebrain membranes was determined by the method of Honore et al., Neurosci. Lett., 1985, 54, 27.

Some results are limits rather than exact numbers.

Drawing on patent EP0459561B1, “Dioxo-tetrahydroquinoline derivatives” (MERCK SHARP & DOHME LTD., priority 1990, dated 1991), this text covers IC50 for one compound.

Consider `CCOC(=O)C1C(=O)Nc2cc([N+](=O)[O-])c([N+](=O)[O-])cc2C1=O` (stereo not shown) [Example 50, Ethyl 6,7-Dinitro-2,4-dioxo-3-(1,2,3,4-tetrahydroquinoline)carboxylate], for which the IC50 was less than 50 µM.
